Test system: 485368-065-R3-J5-PDC spheroids with HUVEC/MSC, viability
Assay: Anticancer human tumor 485368-065-R3-J5-PDC patient-derived pancreatic carcinoma cell line growth inhibition [RAS]
Conditions: for IC50: curve of first compound; for viability, T/C: stronger effect = lower value
How it was run: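 Tumour cells grown as complex spheroids with HUVEC endothelial cells and mesenchymal stem cells, treated with RAS pathway inhibitor combinations. Each agent spans half-log steps from near clinical Cmax, or 10 microM where Cmax is unknown.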

[1] = second compound 0.0316 µM, first compound 0.0316 µM
[2] = second compound 0.0316 µM, first compound 0.1 µM
[3] = second compound 0.0316 µM, first compound 0.316 µM
[4] = second compound 0.0316 µM, first compound 1 µM
[5] = second compound 0.0316 µM, first compound 3.16 µM
[6] = second compound 0.0316 µM, first compound 10 µM
[7] = second compound 0.1 µM, first compound 0.0316 µM
[8] = second compound 0.1 µM, first compound 0.1 µM
[9] = second compound 0.1 µM, first compound 0.316 µM
[10] = second compound 0.1 µM, first compound 1 µM
[11] = second compound 0.1 µM, first compound 3.16 µM
[12] = second compound 0.1 µM, first compound 10 µM
[13] = second compound 0.316 µM, first compound 0.0316 µM
[14] = second compound 0.316 µM, first compound 0.1 µM
[15] = second compound 0.316 µM, first compound 0.316 µM
[16] = second compound 0.316 µM, first compound 1 µM
[17] = second compound 0.316 µM, first compound 3.16 µM
[18] = second compound 0.316 µM, first compound 10 µM
[19] = second compound 1 µM, first compound 0.0316 µM
[20] = second compound 1 µM, first compound 0.1 µM
[21] = second compound 1 µM, first compound 0.316 µM
[22] = second compound 1 µM, first compound 1 µM
[23] = second compound 1 µM, first compound 3.16 µM
[24] = second compound 1 µM, first compound 10 µM
[25] = second compound 3.16 µM, first compound 0.0316 µM
[26] = second compound 3.16 µM, first compound 0.1 µM
[27] = second compound 3.16 µM, first compound 0.316 µM
[28] = second compound 3.16 µM, first compound 1 µM
[29] = second compound 3.16 µM, first compound 3.16 µM
[30] = second compound 3.16 µM, first compound 10 µM
[31] = second compound 10 µM, first compound 0.0316 µM
[32] = second compound 10 µM, first compound 0.1 µM
[33] = second compound 10 µM, first compound 0.316 µM
[34] = second compound 10 µM, first compound 1 µM
[35] = second compound 10 µM, first compound 3.16 µM
[36] = second compound 10 µM, first compound 10 µM
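Further: spheroids exposed to agents for seven days before readout.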

CC1(O)CCCC1n1c(=O)c(C(F)F)cc2cnc(NC3CCN(S(C)(=O)=O)CC3)nc21 (centres undefined) + C#Cc1c(F)ccc2cc(O)cc(-c3ncc4c(N5CC6CCC(C5)N6)nc(OCC56CCCN5CC(F)C6)nc4c3F)c12
IC50 (second compound 0.0316 µM): 562 nM
IC50 (second compound 0.1 µM): 314 nM
IC50 (second compound 0.316 µM): 504 nM
IC50 (second compound 1 µM): 344 nM
IC50 (second compound 3.16 µM): 131 nM
IC50 (second compound 10 µM): < 31.6 nM
viability, T/C [1]: 94.1%
viability, T/C [2]: 62.8%
viability, T/C [3]: 53.2%
viability, T/C [4]: 46.5%
viability, T/C [5]: 39.4%
viability, T/C [6]: 11.2%
viability, T/C [7]: 103%
viability, T/C [8]: 66.4%
viability, T/C [9]: 44.9%
viability, T/C [10]: 40.8%
viability, T/C [11]: 39.9%
viability, T/C [12]: 10.9%
viability, T/C [13]: 84.6%
viability, T/C [14]: 71.1%
viability, T/C [15]: 46%
viability, T/C [16]: 39%
viability, T/C [17]: 47.1%
viability, T/C [18]: 11.9%
viability, T/C [19]: 90%
viability, T/C [20]: 63.4%
viability, T/C [21]: 41%
viability, T/C [22]: 44.2%
viability, T/C [23]: 40.4%
viability, T/C [24]: 13.3%
viability, T/C [25]: 65.8%
viability, T/C [26]: 46.8%
viability, T/C [27]: 38.8%
viability, T/C [28]: 34.4%
viability, T/C [29]: 35.8%
viability, T/C [30]: 9.18%
viability, T/C [31]: 36.9%
viability, T/C [32]: 32.6%
viability, T/C [33]: 28.6%
viability, T/C [34]: 30.9%
viability, T/C [35]: 31.9%
viability, T/C [36]: 6.8%

NC1c2ccccc2OC12CCN(c1cnc3c(N4CCCc5ncccc54)n[nH]c3n1)CC2 (centres undefined) + C#Cc1c(F)ccc2cc(O)cc(-c3ncc4c(N5CC6CCC(C5)N6)nc(OCC56CCCN5CC(F)C6)nc4c3F)c12
IC50 (second compound 0.0316 µM): > 10000 nM
IC50 (second compound 0.1 µM): 2380 nM
IC50 (second compound 0.316 µM): 1020 nM
IC50 (second compound 1 µM): 117 nM
IC50 (second compound 3.16 µM): < 31.6 nM
IC50 (second compound 10 µM): < 31.6 nM
viability, T/C [1]: 82.1%
viability, T/C [2]: 79.2%
viability, T/C [3]: 70.9%
viability, T/C [4]: 66.3%
viability, T/C [5]: 72.1%
viability, T/C [6]: 55%
viability, T/C [7]: 76%
viability, T/C [8]: 72.9%
viability, T/C [9]: 61.7%
viability, T/C [10]: 60.7%
viability, T/C [11]: 44.2%
viability, T/C [12]: 43.9%
viability, T/C [13]: 69.9%
viability, T/C [14]: 61.6%
viability, T/C [15]: 58.6%
viability, T/C [16]: 54.4%
viability, T/C [17]: 35.5%
viability, T/C [18]: 28.8%
viability, T/C [19]: 60.3%
viability, T/C [20]: 47.4%
viability, T/C [21]: 43.4%
viability, T/C [22]: 37.9%
viability, T/C [23]: 28.9%
viability, T/C [24]: 18.9%
viability, T/C [25]: 40%
viability, T/C [26]: 33.7%
viability, T/C [27]: 27.5%
viability, T/C [28]: 23.7%
viability, T/C [29]: 17.8%
viability, T/C [30]: 17.5%
viability, T/C [31]: 23.3%
viability, T/C [32]: 20.3%
viability, T/C [33]: 17.9%
viability, T/C [34]: 14.2%
viability, T/C [35]: 13%
viability, T/C [36]: 12.8%

— PubChem BioAssay AID2060902 (Molecular Pharmacology Branch, DTP, NCI, 2025)
